The values that follow come from patent US11860169B2, “Method of treating and prognosing scoliotic patient subgroups” (Chu Sainte-Justine, priority 2013, dated 2024).

For data set [1], the system named is Gi-mediated cell signaling. The experiment in a line: Gi-mediated cellular response measured by cellular impedance (CellKey system) in osteoblasts treated with OPN, HA or antibodies. The format is cell-based, human. Conditions: LPA stimulation. Here is the method: Gi-mediated cellular response in the presence of increasing amounts of rOPN was measured by cellular impedance using the CellKey™ system (Akoume et al., 2010; and Akoume et al., 2013 (J. Vis. Exp.)) in functional groups FG1, FG2 and FG3;
Osteoblasts from healthy subjects and AIS patients of each endophenotype (FG1, FG2 and FG3) were treated with vehicle, OPN (500 ng/ml) or HA (10 μM). The Gi-mediated cellular response in the presence of increasing amounts of LPA was measured by cellular impedance using the CellKey™ system;
(§1) CD44 activity (A) or expression (B) was inhibited in osteoblasts from control, FG1, FG2 and FG3 patients and the effect on OPN-dependent inhibition of Gi-mediated cell signaling was monitored using the CellKey™ system following stimulation with LPA.
Antibodies against integrins β1, β3 and β5 reverse the effect of OPN on Gi-mediated response in FG2 and FG3 subjects only, while blockade of CD44 further potentiates the effect of OPN.
(§2) The variation in Gi-mediated cell signaling in response to OPN in each functional group (FG1, FG2 and FG3) was studied. FIGS. 20 and 21 show the response to OPN (increasing doses) on osteoblasts isolated from patients classified into functional groups FG1, FG2 and FG3. […] Furthermore, MC3T3-E1 cells were used to check the effect of the knockdown of OPN and its receptors. MC3T3-E1 osteoblasts cells were transiently transfected in serum-free medium, using Lipofectamine™ RNAiMAX reagent (Invitrogen) according to the manufacturers instructions and functional experiments were performed 48 h post transfection.

Data set [2] relates to Gi-mediated cell signaling. The data set is described as follows: Gi-mediated cellular response measured by cellular impedance (CellKey system) after siRNA knockdown in osteoblasts. The class given is cell-based. The following applies: for Effect of OPN knock down on Gi-mediated transduction: 48 h post transfection; for Effect of siRNA on OPN-dependent change of Gi-mediated cell signaling: in presence of OPN. Here is the method: Gi-mediated cellular response in the presence siRNAs against rOPN was measured by cellular impedance using the CellKey™ system (Akoume et al., 2010; and Akoume et al., 2013 (J. Vis. Exp.)) in functional groups FG1, FG2 and FG3;
as §1
SiRNAs against integrins β1, β3 and β5 reversed the effect of OPN on Gi-mediated response while blockade of CD44 further potentiated the effect of OPN.
as §2
MC3T3-E1 cells were also used to check the effect of the knockdown of OPN's receptors by RNAi. Experimental conditions were as described for Example 5. The sequence of RNA oligonucleotides used for the knockdowns are: integrin β1 (CCU MG UCA GCA GUA GGA ACA UUA U (SEQ ID NO: 15)), integrin β3 (CCUCCAGCUCAUUGUUGAUGCUUAU (SEQ ID NO: 16)); integrin β5 ([…], HSS-105572, Life technologies (SEQ ID NO: 17), […], HSS-105573, Life technologies (SEQ ID NO: 18); and […], HSS-179984, life technologies, (SEQ ID NO: 19)) and CD44 (GM CM GGA GUC GUC AGA MC UCC A (SEQ ID NO: 20)).

The mark [3] stands for this setting: osteoblasts from FG1 AIS subjects, increasing rOPN, or OPN 500 ng/ml or HA 10 μM.
Where [4] appears, read: osteoblasts from FG2 AIS subjects, increasing rOPN, or OPN 500 ng/ml or HA 10 μM.
[5] abbreviates: osteoblasts from FG3 AIS subjects, increasing rOPN, or OPN 500 ng/ml or HA 10 μM.
Where [6] appears, read: osteoblasts from control (healthy) subjects, OPN 500 ng/ml or HA 10 μM.
The mark [7] stands for this setting: osteoblasts from control subjects.

“Also recorded” adds a separate entry of the source.

As for Hyaluronic acid [HA], the “Effect on Gi-mediated cellular response” value was “increases the Gi-mediated cellular response” in data set [1] (setting [3]), “decreases the Gi-mediated response” in data set [1] (setting [4]), “decreases the Gi-mediated response” in data set [1] (setting [5]) and “decreases the Gi-mediated response” in data set [1] (setting [6]).

“OPN siRNA: siRNA for knock down of OPN expression: CCA CAG CCA CM GCA GUC CAG AUU A (CCACAGCCACAAGCAGUCCAGAUUA; listed as RNA, chemistry not fully specified)”: the “Effect of OPN knock down on Gi-mediated transduction” value in data set [2] (FG1) is on record as “tends to decrease the response”; in data set [2] (FG2), “increases Gi-mediated transduction”; in data set [2] (FG3), “increases Gi-mediated transduction”.

Turning to “OPN: osteopontin, encoded by SPP1 (Gene ID 6696); recombinant rOPN added to osteoblasts”, the “Effect on Gi-mediated cellular response” value in data set [1] (setting [3]) is “enhances Gi signaling”; in data set [1] (setting [4]) it was “aggravates the impairment”; in data set [1] (setting [5]), “aggravates the impairment”; in data set [1] (setting [6]) it was “decreases the Gi-mediated response”.

For the substance “siRNA against CD44: RNA oligonucleotide for CD44 knockdown: GM CM GGA GUC GUC AGA MC UCC A (GAACAAGGAGUCGUCAGAAACUCCA; listed as RNA, chemistry not fully specified)”, the “Effect of siRNA on OPN-dependent change of Gi-mediated cell signaling” value in data set [2] (osteoblasts from FG1 subjects) is given as “further increased Gi-mediated cell signaling”; in data set [2] (osteoblasts from FG2 subjects), “further decreased Gi-mediated cell signaling; also recorded: further reduced Gi-mediated signaling”; in data set [2] (osteoblasts from FG3 subjects), “further decreased Gi-mediated cell signaling; also recorded: further reduced Gi-mediated signaling”; in data set [2] (setting [7]) it was “further decreased Gi-mediated cell signaling; also recorded: further reduced Gi-mediated signaling”.

As to “siRNA against integrin β1: RNA oligonucleotide for integrin β1 knockdown: CCU MG UCA GCA GUA GGA ACA UUA U (CCUAAGUCAGCAGUAGGAACAUUAU; listed as RNA, chemistry not fully specified)”, the “Effect of siRNA on OPN-dependent change of Gi-mediated cell signaling” value in data set [2] (osteoblasts from FG1 subjects) is reported as “reduced (blocked) the increase in Gi-mediated response induced by OPN”; in data set [2] (osteoblasts from FG2 subjects) it was “can be reversed”; in data set [2] (osteoblasts from FG3 subjects), “can be reversed”; in data set [2] (setting [7]) it was “can be reversed”.

For “siRNA against integrin β3: RNA oligonucleotide for integrin β3 knockdown: CCUCCAGCUCAUUGUUGAUGCUUAU (CCUCCAGCUCAUUGUUGAUGCUUAU; listed as RNA, chemistry not fully specified)”, the “Effect of siRNA on OPN-dependent change of Gi-mediated cell signaling” value in data set [2] (osteoblasts from FG1 subjects) is given as “reduced (blocked) the increase in Gi-mediated response induced by OPN”; in data set [2] (osteoblasts from FG2 subjects), “can be reversed”; in data set [2] (osteoblasts from FG3 subjects) it was “can be reversed”; in data set [2] (setting [7]) it was “can be reversed”.
